Test results: paper PMC4785407, “Reduction Impairs the Antibacterial Activity but Benefits the LPS Neutralization Ability of Human Enteric Defensin 5” (Scientific Reports, 2016)
Bridge positions count the residues as written; N and C are the ends. Peptide text beside a SMILES is read from it.

Legend:
[1] = test system: Salmonella enterica serovar Typhimurium (ATCC 14028); assay: virtual colony count assay, S. Typhimurium; assay type: cell-based; conditions: for LD50 (Lethal Dose that kills 50% of bacteria) / LD90 (Lethal Dose that kills 90% of bacteria): ATCC 14028 S. Typhimurium, 1 × 10^6 CFU/mL, 10 mM sodium phosphate buffer pH 7.4, 1% TSB, 37 °C, 1 h, duplicate, repeated three times
Method: (§1) Figure 3 Reduction attenuates the antibacterial activity of HD5OX against Gram-negative bacteria. […] Peptides were prepared in sterile water, with the final concentrations of 0.78, 1.56, 3.13, 6.25, 12.5, and 25 μg/mL. […] Zero survival points are not plotted.

[2] = test system: Escherichia coli (ATCC 25922); assay: virtual colony count assay, E. coli; assay type: cell-based; conditions: for LD50 (Lethal Dose that kills 50% of bacteria) / LD90 (Lethal Dose that kills 90% of bacteria): ATCC 25922 E. coli, 1 × 10^6 CFU/mL, 10 mM sodium phosphate buffer pH 7.4, 1% TSB, 37 °C, 1 h, duplicate, repeated three times
Method: as §1

[3] = test system: E. coli ML35 (ATCC 43827); assay: virtual colony count assay, E. coli ML35; assay type: cell-based; conditions: for LD50 (Lethal Dose that kills 50% of bacteria) / LD90 (Lethal Dose that kills 90% of bacteria): ATCC 43827 E. coli ML35, 1 × 10^6 CFU/mL, 10 mM sodium phosphate buffer pH 7.4, 1% TSB, 37 °C, 1 h, duplicate, repeated three times
Method: as §1

[4] = Isothermal titration calorimetry (ITC), peptides and LPS; assay type: binding; conditions: for interaction with LPS (heat release): 1 mg/mL peptide, 10 μg/mL LPS, 25 °C, repeated three times
Method: Interactions between peptides and LPS were monitored using a MicroCal ITC200 system (Malvern, UK) at 25 °C. The concentration of the peptides in the syringe was 1 mg/mL (40 μL). LPS was prepared in sterile water at a concentration of 10 μg/mL (300 μL per cell). Twenty injections (0.2 μL for the first injection and 2 μL for the remaining injections) were applied at 120 s intervals and at a stirring rate of 1,000 rpm. The data were processed by subtracting the baseline heat release from titrations of sterile water into LPS and from 20 mM DTT into LPS. The experiment was repeated three times.

[5] = test system: E. coli; assay: Antibacterial assay in the presence of LPS; assay type: cell-based; conditions: 4 μg/mL LPS, 12.5 μg/mL peptide
Method: (B) Heat release of the interaction between 1 mg/mL of the peptides and 10 μg/mL of LPS. Shown is the relationship between the enthalpy value (△H) and the weight ratio of peptides to LPS. […] The antibacterial efficiency is presented as the bacterial lethal rate, which is calculated by dividing the number of killed colonies by the number of colonies remaining after treatment with sterile water or 0.25 mM DTT. Statistical significance was determined by the Student’s t-test. n.s, not significant; **p < 0.01.

[6] = test system: interaction between LPS and LBP (mouse LBP); assay: LPS-binding protein (LBP) block assay; assay type: biochemical; conditions: for effect on the interaction between LPS and LBP: 50 μg/mL peptide, mouse LBP 60 ng/mL, biotinylated LPS 50 ng/mL
Method: The effects of peptides on the interaction between LPS and low concentrations of LBP were determined as previously described. Briefly, the plates of a LBP ELISA kit (Boster EK1274) were blocked by the incubation of 1% BSA prepared in 10 mM sodium phosphate buffer (pH 7.4) at 37 °C for 1 h, which were subsequently washed with 0.1% Tween-20. Aliquots of 100 μL of mouse LBP (Sigma SRP6034, 60 ng/mL) were added and incubated at 37 °C for 1.5 h. Peptides were prepared in sterile water, with concentrations of 12.5, 25, and 50 μg/mL, respectively. Biotinylated LPS (50 ng/mL) was added in the absence or presence of peptides (pre-incubated at 37 °C for 30 min). Polymyxin B (200 ng/mL) was used as a positive control. The binding of LPS to LBP was determined using a chromogenic reaction between HRP-conjugated streptavidin (Boster BA1088) and TMB (Sigma 860336). Data were processed by subtracting the absorbance in the absence of LPS. Statistical significance was determined by the Student−Newman−Keuls multiple comparisons test.
Figure 5. The efficiencies of peptides in blocking the interaction between LPS and LBP. A LBP ELISA plate was blocked by 1% BSA and subsequently washed with 0.1% Tween-20. Aliquots of 100 μL of the mouse LBP (60 ng/mL) was added and incubated at 37°C for 1.5 h. Peptides were prepared in sterile water, with concentrations of 12.5, 25, and 50 μg/mL, respectively. Biotinylated LPS (50 ng/mL) was then added in the absence or presence of peptides (pre-incubated at 37°C for 30 min). Data were processed by subtracting the absorbance in the absence of biotinylated LPS. Statistical significance was determined by the Student−Newman−Keuls multiple comparisons test. n.s, not significant; **, p < 0.01, relative to the value of the group solely treated with LPS.

[7] = virtual colony count, 0.78-25 μg/mL, HD5OX vs HD5RED

Compound	LD50 (Lethal Dose that kills 50% of bacteria) [1] [µg/mL]	LD90 (Lethal Dose that kills 90% of bacteria) [1] [µg/mL]	antibacterial action against S. Typhimurium, relative [1, 7]	LD50 (Lethal Dose that kills 50% of bacteria) [2] [µg/mL]	LD90 (Lethal Dose that kills 90% of bacteria) [2] [µg/mL]	antibacterial action against E. coli, relative [2, 7]	LD50 (Lethal Dose that kills 50% of bacteria) [3] [µg/mL]	LD90 (Lethal Dose that kills 90% of bacteria) [3] [µg/mL]	antibacterial action against E. coli ML35, relative [3, 7]	interaction with LPS (heat release) [4]	antibacterial efficiency in presence of LPS [5]	effect on the interaction between LPS and LBP [6]	fold of concentration needed to inactivate 90% relative to HD5OX ([1]; S. Typhimurium ATCC 14028, higher than HD5OX)	fold of concentration needed to inactivate 90% relative to HD5OX ([2]; E. coli ATCC 25922, higher than HD5OX)	fold of concentration needed to inactivate 90% relative to HD5OX ([3]; E. coli ML35 ATCC 43827, higher than HD5OX)	LPS-binding, relative ([4]; weight ratios ≥8.0, vs HD5OX)	LBP-blocking, dose dependence ([6]; 12.5, 25, and 50 μg/mL)
CC[C@H](C)[C@@H]1NC(=O)[C@H](CCC(=O)O)NC(=O)[C@@H]2CSSC[C@@H]3NC(=O)[C@H](Cc4ccc(O)cc4)NC(=O)[C@@H](NC(=O)[C@@H](NC(=O)[C@H](C)N)[C@@H](C)O)CSSC[C@@H](C(=O)N[C@@H](CCCNC(=N)N)C(=O)O)NC(=O)[C@H](CSSC[C@H](NC(=O)[C@H](CCCNC(=N)N)NC(=O)CNC(=O)[C@H]([C@@H](C)O)NC(=O)[C@H](CCCNC(=N)N)NC3=O)C(=O)N[C@@H](C)C(=O)N[C@@H]([C@@H](C)O)C(=O)N[C@@H](CCCNC(=N)N)C(=O)N[C@@H](CCC(=O)O)C(=O)N[C@@H](CO)C(=O)N[C@@H](CC(C)C)C(=O)N[C@@H](CO)C(=O)NCC(=O)N[C@@H](C(C)C)C(=O)N2)NC(=O)[C@H](CC(C)C)NC(=O)[C@H](CCCNC(=N)N)NC(=O)[C@H](Cc2ccc(O)cc2)NC(=O)[C@H](CC(C)C)NC(=O)[C@H](CCCNC(=N)N)NC(=O)CNC(=O)[C@H](CO)NC1=O [HD5OX, Oxidized human defensin 5] (H-ATCYCRTGRCATRESLSGVCEISGRLYRLCCR-OH; disulfide 3-31, 5-20, 10-30; N-terminus and C-terminus assumed)	4.6 ± 0.5	9.6 ± 0.7	more potent action against these bacteria than HD5RED	3.2 ± 0.7	7.6 ± 1.1	more potent action against these bacteria than HD5RED	4.7 ± 0.8	11.6 ± 1.7	more potent action against these bacteria than HD5RED	exothermically interacted with 10 μg/mL of LPS	virtually unaffected	less effect on the interaction between LPS and LBP	–	–	–	–	–
CC[C@H](C)[C@H](NC(=O)[C@H](CCC(=O)O)NC(=O)[C@H](CS)NC(=O)[C@@H](NC(=O)CNC(=O)[C@H](CO)NC(=O)[C@H](CC(C)C)NC(=O)[C@H](CO)NC(=O)[C@H](CCC(=O)O)NC(=O)[C@H](CCCNC(=N)N)NC(=O)[C@@H](NC(=O)[C@H](C)NC(=O)[C@H](CS)NC(=O)[C@H](CCCNC(=N)N)NC(=O)CNC(=O)[C@@H](NC(=O)[C@H](CCCNC(=N)N)NC(=O)[C@H](CS)NC(=O)[C@H](Cc1ccc(O)cc1)NC(=O)[C@H](CS)NC(=O)[C@@H](NC(=O)[C@H](C)N)[C@@H](C)O)[C@@H](C)O)[C@@H](C)O)C(C)C)C(=O)N[C@@H](CO)C(=O)NCC(=O)N[C@@H](CCCNC(=N)N)C(=O)N[C@@H](CC(C)C)C(=O)N[C@@H](Cc1ccc(O)cc1)C(=O)N[C@@H](CCCNC(=N)N)C(=O)N[C@@H](CC(C)C)C(=O)N[C@@H](CS)C(=O)N[C@@H](CS)C(=O)N[C@@H](CCCNC(=N)N)C(=O)O [HD5RED] (H-ATCYCRTGRCATRESLSGVCEISGRLYRLCCR-OH)	7.9 ± 1.1	19.5 ± 1.6	–	6.5 ± 0.8	12.9 ± 1.3	–	9.9 ± 0.6	22.5 ± 2.3	–	heat release was higher than that of HD5OX	significantly impaired	significantly inhibited the LPS-LBP interaction	2.0 -fold	1.7 -fold	1.9 -fold	much stronger than that of HD5OX	dose-dependent LBP-blocking
